This note sets out measurements from article PMC7018803, “A randomized, placebo-controlled, phase 1 study to evaluate the effects of TAK-063 on ketamine-induced changes in fMRI BOLD signal in healthy subjects” (Psychopharmacology, 2019).

This data set can be described thus: Pharmacokinetics of TAK-063 in plasma after single oral dose. The format is in vivo, human. An excerpt: The Statistics Department at Takeda Development Center Americas, Inc., generated a randomization schedule before the start of the study, and this randomization schedule maintained the investigational drug blind. During randomization, subjects were assigned a four-digit randomization sequence that encoded assignment of subjects to the treatment schedule. Subjects were randomized to one of nine treatment schedules and received placebo + ketamine (regimen A) and two of the following three treatment regimens: 3 mg of TAK-063 + ketamine (regimen B), 30 mg of TAK-063 + ketamine (regimen C), and 300 mg of TAK-063 + ketamine (regimen D). […] Treatment sequences are presented in Online Resource Supplementary Table S1. The study consisted of multiple visits with a different treatment protocol on each visit. The visits were standardized and included a screening period (day − 28 to day − 2), check-in (day − 1), a treatment period (days 1), completion of treatment visit (day 2), and a follow-up visit (day 14 ± 3 days after last TAK-063 dose). After each treatment period, subjects stayed overnight at the study site for observation and were discharged on day 2. Each participant completed the study when they completed the follow-up visit after their last treatment2.
Subjects checked in on day − 1 of each treatment period during which vital signs, electrocardiogram (ECG), and laboratory safety tests were repeated. On day 1 of each treatment period, subjects received a 3-, 10-, or 30-mg TAK-063 dose or placebo tablets. Participants then relaxed, slept, or watched movies while remaining in the research environment. Ketamine (0.12 mg/kg intravenous bolus over 60 s followed by a continuous infusion of 0.31 mg/kg/h over approximately 150 min) was administered 4 h after TAK-063 or placebo (Fig. 1). This ketamine dose was based on a previous study that achieved steady-state concentrations of 75 ng/mL and provided a robust BOLD signal with minimal psychotomimetic symptoms (De Simoni et al. [2013]). […]
Blood samples were collected for the determination of TAK-063 and ketamine concentrations, and ketamine concentrations were used to verify intravenous delivery of ketamine. Blood samples for determination of TAK-063 concentration were collected at pre-dose and at 0.5, 2, 3, 4.5, 6, 8, 10, 12, and 24 h post dose. Blood samples for determination of ketamine concentration were collected at 0.5, 1, 2, and 2.5 h after administration of ketamine. The target ketamine concentration was established at 75 ng/mL. PK samples were not collected from the arm in which ketamine was administered.
This study was not powered for any comparison, and the number of subjects was considered to be suitable for fulfilling study objectives. All statistical tests were two-tailed at α = 0.05 level of significance. For the analysis of the neuroimaging battery test results, effect sizes of > 0.3 were considered potentially meaningful, even without power to detect statistical significance. PK parameters of TAK-063 were generated using WinNonlin Version 6.3. fMRI images were analyzed using SPM8 and Matlab. Percent signal change for resting state data was calculated between pre-ketamine and post-ketamine infusion based on a priori ROIs using SPM’s Anatomy Toolbox (Yurgelun-Todd et al. [2016]). Percent signal change for the working memory task was calculated for the task versus baseline in the post-ketamine condition using the same ROI used for resting state (Yurgelun-Todd et al. [2016]). An analysis of variance (ANOVA) model was used to perform the analyses for BOLD signal changes (Yurgelun-Todd et al. [2016]). Cohen’s d effect sizes were calculated as d=μt^−μp^/sp where d is the effect size and μt^ and μp^ are the least-square means for a TAK-063 dose and placebo regimen, respectively, from the ANOVA model. sp is the pooled standard deviation from both regimens. No adjustments were made for multiple comparisons.

In the case of `COc1cn(-c2ccc(-n3cccn3)cc2F)nc(-c2ccnn2-c2ccccc2)c1=O` [TAK-063], the AUC24 runs as follows: (3 mg single oral dose) 111.3 ng·h/mL; (10 mg single oral dose) 549.2 ng·h/mL; (30 mg single oral dose) 1296.3 ng·h/mL. The “Average concentration (Cav)” value reads like this: (3 mg single oral dose) 4.63 ng/mL; (10 mg single oral dose) 22.9 ng/mL; (30 mg single oral dose) 53.9 ng/mL. Moreover, for the setting “oral administration”, the rate of absorption entry is recorded as “moderate”. Further, the “Decline of plasma concentrations after Cmax” value (single oral dose) is given as “declined in a biphasic manner”.
